Measured values reported in ChEMBL document CHEMBL1938362, “Synthesis and properties of molecular probes for the rescue site on mutant cystic fibrosis transmembrane conductance regulator” (J Med Chem, 2011).

Experiments:
BHK = assay: Modulation of CFTR F508 deletion mutant expressed in BHK cells assessed as increase in forskolin-stimulated iodine influx at 10 uM after 5 mins […] (reference value: 1.4 +/- 0.4 nM/s); assay type: cell-based
[1] = tested on: Cystic fibrosis transmembrane conductance regulator (Homo sapiens), P13569 [G551D]; assay: Modulation of C-terminal His10-tagged CFTR G551D mutant in liposomes of egg phosphatidylcholine assessed as increase in iodine influx at 10 uM after 5 mins […] in presence of protein kinase A and valinomycin relative to control
Chain of Cystic fibrosis transmembrane conductance regulator (Homo sapiens), P13569 [G551D] (P13569 whole entry G551D): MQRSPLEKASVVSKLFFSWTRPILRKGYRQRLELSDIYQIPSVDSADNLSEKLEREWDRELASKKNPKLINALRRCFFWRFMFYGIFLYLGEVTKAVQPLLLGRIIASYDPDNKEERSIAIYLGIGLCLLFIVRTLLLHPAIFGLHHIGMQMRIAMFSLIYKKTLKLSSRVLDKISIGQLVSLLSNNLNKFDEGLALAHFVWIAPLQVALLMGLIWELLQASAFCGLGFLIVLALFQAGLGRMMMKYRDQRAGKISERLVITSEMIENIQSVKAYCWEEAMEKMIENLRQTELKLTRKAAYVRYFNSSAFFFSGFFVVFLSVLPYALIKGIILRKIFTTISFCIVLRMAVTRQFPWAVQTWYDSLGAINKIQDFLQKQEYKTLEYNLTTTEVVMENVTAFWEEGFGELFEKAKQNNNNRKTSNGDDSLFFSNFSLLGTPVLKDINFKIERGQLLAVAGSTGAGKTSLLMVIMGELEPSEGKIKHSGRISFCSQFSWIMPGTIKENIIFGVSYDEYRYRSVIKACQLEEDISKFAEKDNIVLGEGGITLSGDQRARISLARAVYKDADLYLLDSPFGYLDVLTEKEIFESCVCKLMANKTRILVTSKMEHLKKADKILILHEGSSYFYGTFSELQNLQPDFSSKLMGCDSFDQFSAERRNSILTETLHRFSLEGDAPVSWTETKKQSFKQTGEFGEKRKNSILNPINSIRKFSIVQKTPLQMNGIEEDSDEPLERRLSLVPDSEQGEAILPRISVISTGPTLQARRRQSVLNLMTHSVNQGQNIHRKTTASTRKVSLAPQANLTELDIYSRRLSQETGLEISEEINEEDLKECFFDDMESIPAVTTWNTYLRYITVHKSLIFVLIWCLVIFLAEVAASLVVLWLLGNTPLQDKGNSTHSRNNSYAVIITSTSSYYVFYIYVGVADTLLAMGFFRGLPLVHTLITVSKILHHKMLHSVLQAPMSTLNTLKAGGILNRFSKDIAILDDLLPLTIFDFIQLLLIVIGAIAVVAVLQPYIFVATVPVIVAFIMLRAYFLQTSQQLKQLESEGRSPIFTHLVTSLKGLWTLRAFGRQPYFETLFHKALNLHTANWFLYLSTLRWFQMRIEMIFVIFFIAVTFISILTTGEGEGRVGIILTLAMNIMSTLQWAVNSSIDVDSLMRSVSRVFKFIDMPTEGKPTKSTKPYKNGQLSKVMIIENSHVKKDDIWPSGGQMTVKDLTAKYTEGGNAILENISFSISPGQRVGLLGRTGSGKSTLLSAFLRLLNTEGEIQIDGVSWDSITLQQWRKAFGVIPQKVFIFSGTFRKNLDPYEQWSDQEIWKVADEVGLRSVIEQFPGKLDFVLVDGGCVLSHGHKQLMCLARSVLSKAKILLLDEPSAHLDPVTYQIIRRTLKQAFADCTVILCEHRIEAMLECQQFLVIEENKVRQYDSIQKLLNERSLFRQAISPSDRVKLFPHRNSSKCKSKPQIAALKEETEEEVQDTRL

Activity [1] | SMILES | Activity (BHK)
 | Cc1ccc(O)c(-c2cc(-c3ccc(I)cc3)[nH]n2)c1 | 5.1 nM/s
 | Cc1ccc(O)c(-c2cc(-c3ccc(N)cc3)[nH]n2)c1 | 5.1 nM/s
11.2 nM/s | Cc1ccc(O)c(-c2cc(-c3ccc(C#CCNS(=O)(=O)c4cccc5c(N(C)C)cccc45)cc3)[nH]n2)c1 | 1.7 nM/s
 | Cc1ccc(O)c(-c2cc(-c3ccc(N=[N+]=[N-])cc3)[nH]n2)c1 | 5.1 nM/s
 | Cc1ccc(O)c(-c2cc(-c3ccc([N+](=O)[O-])cc3)[nH]n2)c1 | 5.1 nM/s
16.9 nM/s | Cc1ccc(O)c(-c2cc(-c3ccccc3)[nH]n2)c1 | 9.9 nM/s
